Measurements from the NIST ThermoML archive (doi:10.1021/je301122r).
± gives the expanded uncertainty stated by the source.

Key:
[1] = 293.15 K; 101.33 kPa; Liquid; Vibrating tube method
[2] = refractive index (Na D-line) (dimensionless); conditions: 293.15 K; 101.33 kPa; Liquid; Standard Abbe refractometry

Row | Structure (SMILES) | mass density [1] | refractive index [2]
1 | CCc1ccccc1C [1-ethyl-2-methylbenzene] | 880.66 ± 0.13 kg/m3 | 1.5045 ± 0.0007
2 | Cc1ccc(C)c(C)c1 [1,2,4-trimethylbenzene] | 875.78 ± 0.13 kg/m3 | 1.5047 ± 0.0007
